Results on 3 compounds are retold here after patent publication US20220144915A1, “STABILIZATION OF PRANDIAL OR BASAL INSULIN ANALOGUES BY AN INTERNAL DISELENIDE BRIDGE” (THE TRUSTEES OF INDIANA UNIVERSITY, priority 2019, published 2022).

The conditions of data set [1]: side-chain -SH versus -SeH; cited from earlier work.
For data set [2], the system named is MCF-7. The data set is described as follows: Mitogenicity: cyclin D1 / cyclin G2 mRNA by q-RT-rtPCR in MCF-7 cells. The format is cell-based, human.
Text: Increased expression of the gene encoding cyclin D1 and decreased expression of the gene encoding cyclin G2 are characteristic of cellular proliferation in response to signaling by mitogenic insulin analogues or IGFs.
An assay for relative mitogenicity among insulin analogues is provided by transcriptional signaling leading to reciprocal regulation of the genes encoding cyclin D1 and cyclin G2 (Glidden, M. D., et al. (2018) J. Biol. Chem. 293: 47-68).

Regarding `N[C@@H](CS)C(=O)O` [Cys, cysteine], the pKa result in data set [1] is “approximately 8.3”.
As for `N[C@@H](C[SeH])C(=O)O` [Sec, selenocysteine], the pKa entry in data set [1] was “approximately 5.2”.
Turning to “IGF-1: mitogenic growth factor, positive control”, the “mitogenic signature (cyclin D1 activation, cyclin G2 repression)” value in data set [2] was “stimulates cyclin D1 transcription and inhibits cyclin G2 transciption to a more marked extent”.
